Literature values as cited in patent publication US6511968B1, “Combination therapy for treating, preventing, or reducing the risks associated with acute coronary ischemic syndrome and related conditions” (Merck & Co., Inc., priority 1998, dated 2003).
Where a name gives a salt, the structure may show the parent alone. Where a SMILES comes first, the peptide text is derived from it. Bridges are numbered along the chain shown (N, C = ends). [ ]: non-standard residue; d: D form. hArg = N=C(N)NCCCC[C@H](N)C(=O)O; Mpa = O=C(O)CCS

Columns and labels:
GP IIb/IIIa = GP IIb/IIIa (Homo sapiens, UniProt P05106+P08514); details: for selectivity for GPIIb/IIIa: administered intravenously
Sequence of GP IIb/IIIa (P08514 32-887 limits assumed): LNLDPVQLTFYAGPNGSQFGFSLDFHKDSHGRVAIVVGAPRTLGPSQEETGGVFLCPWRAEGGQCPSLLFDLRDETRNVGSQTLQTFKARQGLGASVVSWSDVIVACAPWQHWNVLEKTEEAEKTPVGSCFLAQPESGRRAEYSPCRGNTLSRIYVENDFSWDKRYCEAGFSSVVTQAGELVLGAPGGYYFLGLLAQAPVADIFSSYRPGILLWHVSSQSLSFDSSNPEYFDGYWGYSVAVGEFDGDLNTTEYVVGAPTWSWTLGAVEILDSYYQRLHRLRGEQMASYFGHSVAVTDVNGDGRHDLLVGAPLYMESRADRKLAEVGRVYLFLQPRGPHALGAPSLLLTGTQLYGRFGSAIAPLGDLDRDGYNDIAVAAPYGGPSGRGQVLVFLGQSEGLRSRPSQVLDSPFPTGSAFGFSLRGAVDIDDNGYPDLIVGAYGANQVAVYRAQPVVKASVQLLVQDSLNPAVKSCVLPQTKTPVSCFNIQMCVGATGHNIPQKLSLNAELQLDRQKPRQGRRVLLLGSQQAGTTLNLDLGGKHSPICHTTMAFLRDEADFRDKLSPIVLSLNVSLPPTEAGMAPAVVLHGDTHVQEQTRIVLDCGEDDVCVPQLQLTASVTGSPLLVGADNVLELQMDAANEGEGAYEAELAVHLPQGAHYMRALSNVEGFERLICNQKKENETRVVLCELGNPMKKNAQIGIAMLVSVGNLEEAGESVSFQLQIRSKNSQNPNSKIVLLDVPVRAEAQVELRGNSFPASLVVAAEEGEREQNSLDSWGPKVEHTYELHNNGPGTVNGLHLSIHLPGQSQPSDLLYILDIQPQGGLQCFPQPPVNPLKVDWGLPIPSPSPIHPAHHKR
Sequence of GP IIb/IIIa (P08514 891-1039 partner limits assumed): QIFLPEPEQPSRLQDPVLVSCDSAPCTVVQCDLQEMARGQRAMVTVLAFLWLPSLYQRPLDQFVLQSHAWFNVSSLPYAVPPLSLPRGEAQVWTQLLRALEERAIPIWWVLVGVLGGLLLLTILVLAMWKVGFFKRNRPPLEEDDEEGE
Sequence of GP IIb/IIIa (P05106 27-788): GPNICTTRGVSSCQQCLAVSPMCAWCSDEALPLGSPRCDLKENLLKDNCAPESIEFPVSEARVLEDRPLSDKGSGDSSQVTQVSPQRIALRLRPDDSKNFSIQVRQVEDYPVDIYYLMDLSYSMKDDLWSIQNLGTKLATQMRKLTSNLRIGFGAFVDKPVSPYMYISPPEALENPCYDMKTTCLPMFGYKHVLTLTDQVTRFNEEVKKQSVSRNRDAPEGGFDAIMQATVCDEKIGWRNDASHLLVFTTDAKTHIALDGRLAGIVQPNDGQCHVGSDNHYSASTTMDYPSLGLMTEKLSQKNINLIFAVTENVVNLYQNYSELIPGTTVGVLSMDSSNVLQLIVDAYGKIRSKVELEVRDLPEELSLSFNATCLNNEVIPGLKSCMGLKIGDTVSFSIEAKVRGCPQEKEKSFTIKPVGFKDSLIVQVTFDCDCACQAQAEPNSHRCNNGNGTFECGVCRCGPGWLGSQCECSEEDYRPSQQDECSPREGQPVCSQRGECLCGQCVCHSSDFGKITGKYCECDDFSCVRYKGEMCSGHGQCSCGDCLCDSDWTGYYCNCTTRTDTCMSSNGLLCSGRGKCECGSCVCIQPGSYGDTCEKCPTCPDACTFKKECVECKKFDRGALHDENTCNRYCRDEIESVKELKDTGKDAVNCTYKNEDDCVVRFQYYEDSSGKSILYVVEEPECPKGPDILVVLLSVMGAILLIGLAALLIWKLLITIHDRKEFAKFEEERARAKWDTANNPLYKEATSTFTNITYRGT

[1] = prodrug
αvβ3 = αvβ3 (Homo sapiens, UniProt P05106+P06756)
Sequence of αvβ3 (P06756 31-889 limits assumed): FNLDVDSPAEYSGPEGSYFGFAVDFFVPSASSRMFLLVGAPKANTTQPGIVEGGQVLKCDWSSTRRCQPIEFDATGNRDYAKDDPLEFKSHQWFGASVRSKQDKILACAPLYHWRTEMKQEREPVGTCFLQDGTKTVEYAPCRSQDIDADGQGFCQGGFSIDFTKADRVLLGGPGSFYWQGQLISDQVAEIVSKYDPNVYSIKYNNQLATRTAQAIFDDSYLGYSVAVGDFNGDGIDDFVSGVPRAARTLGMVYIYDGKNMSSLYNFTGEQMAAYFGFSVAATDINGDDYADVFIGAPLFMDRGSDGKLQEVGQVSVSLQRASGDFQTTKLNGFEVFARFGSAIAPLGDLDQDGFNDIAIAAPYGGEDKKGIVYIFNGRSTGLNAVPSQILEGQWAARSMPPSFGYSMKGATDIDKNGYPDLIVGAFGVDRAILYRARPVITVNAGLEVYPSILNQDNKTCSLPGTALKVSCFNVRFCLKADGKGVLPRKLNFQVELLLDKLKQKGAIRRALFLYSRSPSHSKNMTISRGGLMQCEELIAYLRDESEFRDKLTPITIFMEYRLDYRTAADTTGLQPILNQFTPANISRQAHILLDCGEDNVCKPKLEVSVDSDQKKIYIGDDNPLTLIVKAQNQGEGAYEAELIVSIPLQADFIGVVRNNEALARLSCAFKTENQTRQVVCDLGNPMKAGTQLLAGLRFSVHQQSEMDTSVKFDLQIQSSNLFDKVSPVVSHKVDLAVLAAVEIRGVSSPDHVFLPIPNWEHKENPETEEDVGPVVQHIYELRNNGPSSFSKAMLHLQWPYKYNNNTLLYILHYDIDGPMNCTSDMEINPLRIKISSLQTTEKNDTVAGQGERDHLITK
Sequence of αvβ3 (P06756 891-1048 partner limits assumed): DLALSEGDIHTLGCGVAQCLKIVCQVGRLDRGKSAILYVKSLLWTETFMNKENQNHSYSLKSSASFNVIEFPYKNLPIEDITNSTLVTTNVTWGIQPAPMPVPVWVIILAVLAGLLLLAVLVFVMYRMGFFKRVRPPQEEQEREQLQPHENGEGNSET
Sequence of αvβ3 (P05106 27-788): as the sequence (P05106 27-788) above

platelet aggregation = details: increasing concentrations added to platelet-rich plasma in vitro or incremental doses in vivo

N=C(N)c1ccc(C(=O)N[C@@H](Cc2ccc(O)cc2)C(=O)N2CCC(OCC(=O)O)CC2)cc1 [Ro 44-9883]
selectivity for GPIIb/IIIa (GP IIb/IIIa): selective for GPIIb/IIIa

C#C[C@H](CC(=O)OCC)NC(=O)CCC(=O)Nc1ccc(C(=N)N)cc1 [SC54684, ethyl 3-[[4-[[4-(aminoiminomethyl)phenyl]amino]-1,4-dioxobutyl]amino]-4-pentynoate]
oral bioavailability [1]: high oral bioavailability

CCCCS(=O)(=O)N[C@@H](Cc1ccc(OCCCCC2CCNCC2)cc1)C(=O)O [MK-383, 2-S-(n-Butylsulfonylamino)-3[4-piperidin-4-yl)butyloxyphenyl]propionic acid hydrochloride]
selectivity for GPIIb/IIIa (GP IIb/IIIa): selective for GPIIb/IIIa

N=C(N)NCCCC[C@@H]1NC(=O)CCSSC[C@@H](C(N)=O)NC(=O)[C@@H]2CCCN2C(=O)[C@H](Cc2c[nH]c3ccccc23)NC(=O)[C@H](CC(=O)O)NC(=O)CNC1=O [Integrelin] ([Mpa][hArg]GDWPC-NH2; disulfide 1-7)
effect on ligand binding to αvβ3 / receptor blockade (αvβ3): very little effect | inhibition of ligand binding to GP IIb/IIIa / receptor blockade (GP IIb/IIIa): inhibits ligand binding to GP IIb/IIIa

B1: c7E3 Fab: c7E3 Fab form of the 7E3 antibody (antibody, chains of the INN, looked up, V domains shown)
VH: EVQLQQSGTVLARPGASVKMSCEASGYTFTNYWMHWVKQRPGQGLEWIGAIYPGNSDTSYIQKFKGKAKLTAVTSTTSVYMELSSLTNEDSAVYYCTLYDGYYVFAYWGQGTLVTVSA
VL: EIVLTQSPVTLSVTPGDSVSLSCRASRDISNNLHWFQQTSHESPRLLIKYASQSMSGIPSRFSGSGSGTDFTLSINSVETEDFGMYFCQQTNSWPYTFGGGTKLEIK
modifications: Fab
notes: c7E3 Fab form of the 7E3 antibody
platelet aggregation (platelet aggregation): profoundly inhibited
